In patent US20050234122A1, “Prevention of and countermeasures against viral infection” (LIFE SCIENCE INSTITUTE, LTD., priority 2004, published 2005):

What was measured:
[1] = rats suffering from artificial peritonitis; cited from earlier work
immune function = settings: cited from earlier work
[2] = Activity of vitamin C in drip infusion depending on pH; assay type: physicochemical; settings: drip infusion with a pH of 7.0 or greater
[3] = Oxidation of vitamin C dissolved in a juice; assay type: physicochemical; settings: within about 90 minutes
[4] = Viscosity of mucopolysaccharides after adding vitamin C (Oswald viscometer); settings: vitamin C added to mucopolysaccharides

Row | Structure (SMILES) | survivorship [1] | decreased weight of the thymus gland and decreased T-cells' capability of blast transformation (immune function; rat suffering from fracture) | T-cells' capability of blast transformation (immune function; rats) | weight of the thymus gland (immune function; rats) | activity of vitamin C [2] | vitamin C that becomes an oxidized derivative [3] [%] | viscosity of the mixture [4]
1 | N=C(N)NCCC[C@H](N)C(=O)O [arginine] | remarkably increased survivorship | recovered | increases | increases | – | – | –
2 | O=C1O[C@H]([C@@H](O)CO)C(O)=C1O [vitamin C, ascorbic acid] | – | – | – | – | decreases | 50 | gradually decreases
